Test results reported in publication PMC7143261 (Foods, 2020).

Key:
[1] = Plasmatic antioxidant capacity by FRAP after treatment; type: in vivo, Sprague Dawley rats; conditions: 90 min after oral 50 µg melatonin/kg
Procedure: (§1) Phytochemicals and metabolites were isolated using SPE.
The plasma samples were also used to assess the reducing antioxidant potential using the FRAP assay, as previously described. Briefly, 300 μL of a working FRAP reagent [acetate buffer 0.3 M pH 3.6, 10 mM TPTZ in 40 mM HCl and 20 mM FeCl3·6H2O (10:1:1) (v/v/v)] were tempered to 37 °C, and then 10 μL of plasma samples were added. The absorbance was taken at 593 nm against reagent blank after 10 min. FRAP values were calculated and reported as µM Trolox equivalents (µM TE).

[2] = Bioavailability study: plasmatic melatonin 90 min after treatment (ELISA); conditions: 90 min after oral 50 µg synthetic melatonin/kg
Procedure: Each of the four groups (10 rats) was administered the treatment and sacrificed on a different day. […] The administration was performed through a gavage using a suitable intubation cannula. After that, the rats were individually caged, and a cling film was placed below the cage to obtain the urine samples. After 90 min of extract administration, all rat groups were anesthetized by CO2. Urine was collected from the cling film with a pipette and transferred to a vial. […] The blood was collected by cardiac puncture, transferred to vials containing 5% heparin, and centrifuged at 4 °C for 15 min at 2100 g. […] Phytochemicals and metabolites were isolated using SPE. First, plasma and urine samples were centrifuged at 15000 g for 4 min at 4 °C. Then, samples were filtered using C18 SPE cartridges (Waters, Cerdanyola del Vallès, Spain). Finally, the eluted obtained fractions were evaporated to dryness (Speed Vac SC 200, Savant Instruments, Farmingdale, NY, USA) and reconstituted before being assayed.

[3] = Plasmatic antioxidant capacity by ORAC after treatment; type: in vivo, Sprague Dawley rats; conditions: 90 min after oral 50 µg synthetic melatonin/kg
Procedure: as §1
The above plasma samples were used to determine the radical scavenging activity via the ORAC method using fluorescein as a fluorescence probe. The assay was performed at 37 °C in 75 mM phosphate buffer (pH 7.4). The reaction mixture (200 μL) contained fluorescein (70 nM), 2,2-azobis (2-methyl-propionamidine)-dihydrochloride (12 mM), and samples (Trolox or samples). Fluorescence was read at 485/520 nm, excitation/emission, respectively. Black 96-well untreated microplates (PS Balck, Porvair, Leatherhead, UK) were used. The fluorescence signal was measured every minute for 80 min after automatic shaking. All reaction mixtures were prepared in triplicate, running them at least three times independently. Fluorescence was normalized to the oxidation control (phosphate buffer) and stability control (no antioxidant). The ORAC values were expressed as mM Trolox equivalents (mM TE) according to the protocol previously described.

[4] = Pharmacokinetic study of plasma melatonin after single oral dose of lentil sprouts extract
Excerpt: (§2) The area under the curve (AUC) is the integral of the plasma concentration of an altered drug against an interval of definite time. Pharmacokinetic parameters including plasma elimination rate constant (Ke), elimination half-life (t1/2), time to reach measured maximum plasma concentration (Tmax), measured maximum plasma concentration (Cmax), area under the plasma concentration-time curve from the time zero to the time of last quantifiable concentration (AUC0–t), area under the plasma concentration-time curve from time zero to infinity (AUC0–∞), area under the plasma (first) moment concentration-time curve from time zero to infinity (AUMC0–∞), mean residence time (MRT), volume of distribution (VD/F), and clearance (Cl/F) were determined by noncompartmental methods.

[5] = Plasmatic serotonin after treatment (ELISA); type: in vivo, Sprague Dawley rats; conditions: 90 min after oral 50 µg melatonin/kg
[6] = cited from earlier work
[7] = in vivo; conditions: Sprague Dawley, rat, plasma, po, 50 ug/kg
Excerpt: as §2

[8] = Plasma total phenolic compounds (Folin-Ciocalteu) after treatment; type: in vivo, Sprague Dawley rats; conditions: 90 min posttreatment, 50 µg melatonin/kg
Procedure: as §1
Samples (10 μL) were added to 150 μL of Folin-Ciocalteu reagent (diluted 1:15, v/v in Milli-Q water). After exactly 3 min, 20% Na2CO3 (50 μL) was added to each well. After 120 min at room temperature, the absorbance of the blue complex was measured at 760 nm using a microplate reader. The concentration of total phenolic compounds was expressed as mg GAE/mL.

[9] = Sprague Dawley, rat, plasma, po, 50 ug/kg
[10] = oral lentil sprouts, 50 µg melatonin/kg

For `COc1ccc2[nH]cc(CCNC(C)=O)c2c1` [melatonin, N-acetyl-5-methoxytryptamine], the “increase of plasmatic antioxidant capacity (FRAP)” value [1] was 4%, the “plasmatic melatonin concentration lower than that of the Lentil Sprouts group” value [2] was 22% and the “increment of plasmatic antioxidant capacity (ORAC) vs the fasting group” value [3] was 32%. It also gave a half-life ([4]; Sprague Dawley, rat, in vivo, po, 50 ug/kg) of 1.82 ± 0.217 h, a CL/F [4, 9] of 330 L/h/kg and a half-life [4, 9] of about 1.67 h. The k el [4, 9] was 0.000108 s⁻¹, the MRT inf ([4]; Sprague Dawley, rat, plasma, po, 50 ug/kg, MRT 0-∞, oral lentil sprouts, 50 µg melatonin/kg) was about 3.33 h and the “time of maximum plasma melatonin concentration postadministration” value ([4]; oral lentil sprouts extract, 50 µg melatonin/kg) was 1.5 h. For the same molecule, the “AUC 0-t /dose” value [4, 10] was 131.2 ± 19.3 (pg/mL min)/(μg/kg), the “AUC 0-∞” value [4, 10] was 9381 ± 2008 pg·min/mL and the “AUMC 0-∞” value [4, 10] was 1897356 ± 589030 pg/mL min^2. The Cl/F [4, 10] was 0.33 ± 0.07 (μg/kg)/(pg/mL)/h, the “MRT 0-∞” value [4, 10] was 3.323 ± 0.33 h and the VD/F [4, 10] was 0.85 ± 0.08 (μg/kg)/(pg/mL). For the same molecule, the “volume of distribution (VD/F)” value [4, 10] was 0.85 L/g, the “AUC 0-t” value ([4]; oral lentil sprouts, 50 µg melatonin/kg, 0-240 min) was 6560 ± 963 pg·min/mL and the “enhancement of plasmatic serotonin concentration in contrast to the Fasting group” value [5] was 2.7 fold. For the same molecule, the “time of absorption in the gastrointestinal tract post-oral administration” value [6] was 45 min, the Cmax [7] was 0.0454 ± 0.0035 ng/mL and the Tmax [7] was 1.5 h. The “change of TPC concentration in plasma” value [8] was “nonsignificant”.
